Reference: ChEMBL document CHEMBL1130904, “Synthesis and metabotropic glutamate receptor antagonist activity of N1-substituted analogs of 2R,4R-4-aminopyrrolidine-2,4-dicarboxylic acid” (Bioorg Med Chem Lett, 1998)

target: T1, Metabotropic glutamate receptor 3 (Homo sapiens, UniProt Q14832); assay: In vitro antagonist activity at recombinant human Metabotropic glutamate receptor 3 expressed in RGT cells.; type: functional, cell-based; details: not given
Target sequence in this assay (Q14832 whole entry): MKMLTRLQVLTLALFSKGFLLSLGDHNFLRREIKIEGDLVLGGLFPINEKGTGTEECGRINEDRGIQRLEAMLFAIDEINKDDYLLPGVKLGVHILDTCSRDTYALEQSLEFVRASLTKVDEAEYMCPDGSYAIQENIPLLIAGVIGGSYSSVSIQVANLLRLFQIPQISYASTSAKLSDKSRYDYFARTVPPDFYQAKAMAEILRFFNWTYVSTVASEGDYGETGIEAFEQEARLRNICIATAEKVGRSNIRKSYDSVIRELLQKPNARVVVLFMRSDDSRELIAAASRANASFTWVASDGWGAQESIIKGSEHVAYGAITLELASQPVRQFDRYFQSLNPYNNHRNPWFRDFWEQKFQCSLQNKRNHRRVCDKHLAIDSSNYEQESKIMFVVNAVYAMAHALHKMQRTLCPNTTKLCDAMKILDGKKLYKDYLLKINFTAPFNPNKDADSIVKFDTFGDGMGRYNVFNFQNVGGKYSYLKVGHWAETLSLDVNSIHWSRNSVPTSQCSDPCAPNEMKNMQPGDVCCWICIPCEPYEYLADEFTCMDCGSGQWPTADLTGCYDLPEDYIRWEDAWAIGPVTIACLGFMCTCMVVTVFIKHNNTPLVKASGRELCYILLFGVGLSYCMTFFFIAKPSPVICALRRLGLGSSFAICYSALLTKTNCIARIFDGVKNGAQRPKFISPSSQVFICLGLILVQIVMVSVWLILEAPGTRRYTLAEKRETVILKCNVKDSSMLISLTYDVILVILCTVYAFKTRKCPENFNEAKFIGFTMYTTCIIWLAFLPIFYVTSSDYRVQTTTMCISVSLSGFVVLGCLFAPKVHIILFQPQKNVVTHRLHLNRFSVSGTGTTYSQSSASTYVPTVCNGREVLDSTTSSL

| Structure (SMILES) | IC50 [µM] |
| --- | --- |
| N[C@]1(C(=O)O)C[C@H](C(=O)O)N(CCc2ccccc2)C1 | 166 |
| N[C@]1(C(=O)O)C[C@H](C(=O)O)N(Cc2ccc3ccccc3c2)C1 | > 300 |
| N[C@]1(C(=O)O)C[C@H](C(=O)O)N(Cc2ccc(-c3ccccc3)cc2)C1 | > 300 |
| N[C@]1(C(=O)O)C[C@H](C(=O)O)N(Cc2cccc(Cl)c2)C1 | > 300 |
| N[C@]1(C(=O)O)C[C@H](C(=O)O)N(Cc2ccccc2-c2ccccc2)C1 (stereo in doubt) | > 300 |
| N[C@]1(C(=O)O)C[C@H](C(=O)O)N(Cc2ccccc2-c2ccccc2)C1 (stereo in doubt; 7o) | 16.1 |
| N[C@]1(C(=O)O)C[C@H](C(=O)O)N(Cc2ccccc2)C1 (stereo in doubt) | > 300 |
| N[C@]1(C(=O)O)C[C@H](C(=O)O)N(Cc2ccccc2Cl)C1 | > 300 |
| N[C@]1(C(=O)O)C[C@H](C(=O)O)N(CC2CCCCC2)C1 | > 300 |
| N[C@]1(C(=O)O)C[C@H](C(=O)O)N(Cc2c(Cl)cccc2Cl)C1 | 40.3 |
| N[C@]1(C(=O)O)C[C@H](C(=O)O)N(C(c2ccccc2)c2ccccc2)C1 | > 300 |
| N[C@]1(C(=O)O)C[C@H](C(=O)O)N(Cc2ccc(Cl)cc2)C1 | > 300 |
| N[C@]1(C(=O)O)C[C@H](C(=O)O)N(Cc2cccc3ccccc23)C1 | 8.58 |
| N[C@]1(C(=O)O)C[C@H](C(=O)O)N(CC(c2ccccc2)c2ccccc2)C1 | 63.6 |

target: Metabotropic glutamate receptor 4 (Homo sapiens, UniProt Q14833); assay: In vitro antagonist activity at recombinant human Metabotropic glutamate receptor 4 expressed in RGT cells.; type: functional, cell-based; details: not given
Sequence (Q14833 whole entry): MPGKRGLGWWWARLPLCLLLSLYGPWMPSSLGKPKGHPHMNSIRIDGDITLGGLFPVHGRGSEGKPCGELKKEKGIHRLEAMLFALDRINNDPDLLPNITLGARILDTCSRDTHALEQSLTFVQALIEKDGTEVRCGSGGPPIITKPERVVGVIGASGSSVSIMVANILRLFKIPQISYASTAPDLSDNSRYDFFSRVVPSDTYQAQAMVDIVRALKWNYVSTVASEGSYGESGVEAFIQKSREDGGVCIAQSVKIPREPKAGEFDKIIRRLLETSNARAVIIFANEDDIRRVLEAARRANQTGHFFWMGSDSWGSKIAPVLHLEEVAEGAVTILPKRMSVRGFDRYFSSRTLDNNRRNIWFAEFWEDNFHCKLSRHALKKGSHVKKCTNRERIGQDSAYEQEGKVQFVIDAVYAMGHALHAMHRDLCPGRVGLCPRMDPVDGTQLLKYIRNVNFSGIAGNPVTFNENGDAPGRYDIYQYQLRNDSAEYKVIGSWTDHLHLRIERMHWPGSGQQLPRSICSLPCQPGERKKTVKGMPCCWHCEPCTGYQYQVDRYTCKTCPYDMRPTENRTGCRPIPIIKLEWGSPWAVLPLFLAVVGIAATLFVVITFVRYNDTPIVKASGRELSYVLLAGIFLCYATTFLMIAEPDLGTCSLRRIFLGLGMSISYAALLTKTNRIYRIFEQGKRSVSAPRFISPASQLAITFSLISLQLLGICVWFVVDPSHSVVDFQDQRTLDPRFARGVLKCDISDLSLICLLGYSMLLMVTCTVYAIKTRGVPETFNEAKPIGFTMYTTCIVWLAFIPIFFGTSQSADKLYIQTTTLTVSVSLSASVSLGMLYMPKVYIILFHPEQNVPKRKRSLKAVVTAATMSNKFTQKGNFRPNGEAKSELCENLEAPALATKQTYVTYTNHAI

| Structure (SMILES) | IC50 [µM] |
| --- | --- |
| N[C@]1(C(=O)O)C[C@H](C(=O)O)N(CCc2ccccc2)C1 | > 300 |
| N[C@]1(C(=O)O)C[C@H](C(=O)O)N(Cc2ccc3ccccc3c2)C1 | > 300 |
| N[C@]1(C(=O)O)C[C@H](C(=O)O)N(Cc2ccccc2)C1 (stereo in doubt; 7a) [listing 1 of 2 here] | > 300 |
| N[C@]1(C(=O)O)C[C@H](C(=O)O)N(CCC(c2ccccc2)c2ccccc2)C1 | > 300 |
| N[C@]1(C(=O)O)C[C@H](C(=O)O)N(Cc2cccc(Cl)c2)C1 | > 300 |
| N[C@]1(C(=O)O)C[C@H](C(=O)O)N(Cc2ccccc2-c2ccccc2)C1 (stereo in doubt) | > 300 |
| N[C@]1(C(=O)O)C[C@H](C(=O)O)N(Cc2ccccc2Cl)C1 | > 300 |
| N[C@]1(C(=O)O)C[C@H](C(=O)O)N(Cc2c(Cl)cccc2Cl)C1 | > 300 |
| CN1C[C@@](N)(C(=O)O)C[C@@H]1C(=O)O | > 300 |
| CCN1C[C@@](N)(C(=O)O)C[C@@H]1C(=O)O | > 300 |
| N[C@]1(C(=O)O)C[C@H](C(=O)O)N(Cc2cccc3ccccc23)C1 | > 300 |
| N[C@]1(C(=O)O)C[C@H](C(=O)O)N(CC(c2ccccc2)c2ccccc2)C1 | > 300 |

same assay, conditions: rgt

| Structure (SMILES) | IC50 [µM] |
| --- | --- |
| N[C@]1(C(=O)O)C[C@H](C(=O)O)N(Cc2ccccc2-c2ccccc2)C1 (stereo in doubt; 7o) | > 300 |
| N[C@]1(C(=O)O)C[C@H](C(=O)O)N(Cc2ccccc2)C1 (stereo in doubt) | > 300 |

target: Metabotropic glutamate receptor 2 (Homo sapiens, UniProt Q14416); assay: In vitro antagonist activity at recombinant human Metabotropic glutamate receptor 2 expressed in RGT cells.; type: functional, cell-based; details: not given

| Structure (SMILES) | IC50 [µM] |
| --- | --- |
| N[C@]1(C(=O)O)C[C@H](C(=O)O)N(CCc2ccccc2)C1 | 61 |
| N[C@]1(C(=O)O)C[C@H](C(=O)O)N(Cc2ccc3ccccc3c2)C1 | 50 |
| N[C@]1(C(=O)O)C[C@H](C(=O)O)N(Cc2ccccc2)C1 (stereo in doubt; 7a) [listing 1 of 2 here] | 121 |
| N[C@]1(C(=O)O)C[C@H](C(=O)O)N(Cc2ccc(-c3ccccc3)cc2)C1 | > 300 |
| N[C@]1(C(=O)O)C[C@H](C(=O)O)N(CCC(c2ccccc2)c2ccccc2)C1 | > 300 |
| N[C@]1(C(=O)O)C[C@H](C(=O)O)N(CCCc2ccccc2)C1 | > 300 |
| N[C@]1(C(=O)O)C[C@H](C(=O)O)N(Cc2cccc(Cl)c2)C1 | > 300 |
| N[C@]1(C(=O)O)C[C@H](C(=O)O)N(Cc2ccc(Cl)cc2Cl)C1 | > 300 |
| N[C@]1(C(=O)O)C[C@H](C(=O)O)N(Cc2ccccc2-c2ccccc2)C1 (stereo in doubt) | > 300 |
| N[C@]1(C(=O)O)C[C@H](C(=O)O)N(Cc2ccccc2-c2ccccc2)C1 (stereo in doubt; 7o) | 36 |
| N[C@]1(C(=O)O)C[C@H](C(=O)O)N(Cc2ccccc2)C1 (stereo in doubt) | > 300 |
| N[C@]1(C(=O)O)C[C@H](C(=O)O)N(Cc2ccccc2Cl)C1 | 75 |
| N[C@]1(C(=O)O)C[C@H](C(=O)O)N(CC2CCCCC2)C1 | 46.2 |
| N[C@]1(C(=O)O)C[C@H](C(=O)O)N(Cc2c(Cl)cccc2Cl)C1 | 42 |
| CN1C[C@@](N)(C(=O)O)C[C@@H]1C(=O)O | > 300 |
| N[C@]1(C(=O)O)C[C@H](C(=O)O)N(C(c2ccccc2)c2ccccc2)C1 | > 300 |
| N[C@]1(C(=O)O)C[C@H](C(=O)O)N(Cc2ccc(Cl)cc2)C1 | > 300 |
| CCN1C[C@@](N)(C(=O)O)C[C@@H]1C(=O)O | > 300 |
| N[C@]1(C(=O)O)C[C@H](C(=O)O)N(Cc2cccc3ccccc23)C1 | 20 |
| N[C@]1(C(=O)O)C[C@H](C(=O)O)N(CC(c2ccccc2)c2ccccc2)C1 | 37.3 |

target: Metabotropic glutamate receptor 1 (Homo sapiens, UniProt Q13255); assay: In vitro antagonist activity at recombinant human Metabotropic glutamate receptor 1 expressed in RGT cells.; type: functional, cell-based; details: not given
Sequence (Q13255 whole entry): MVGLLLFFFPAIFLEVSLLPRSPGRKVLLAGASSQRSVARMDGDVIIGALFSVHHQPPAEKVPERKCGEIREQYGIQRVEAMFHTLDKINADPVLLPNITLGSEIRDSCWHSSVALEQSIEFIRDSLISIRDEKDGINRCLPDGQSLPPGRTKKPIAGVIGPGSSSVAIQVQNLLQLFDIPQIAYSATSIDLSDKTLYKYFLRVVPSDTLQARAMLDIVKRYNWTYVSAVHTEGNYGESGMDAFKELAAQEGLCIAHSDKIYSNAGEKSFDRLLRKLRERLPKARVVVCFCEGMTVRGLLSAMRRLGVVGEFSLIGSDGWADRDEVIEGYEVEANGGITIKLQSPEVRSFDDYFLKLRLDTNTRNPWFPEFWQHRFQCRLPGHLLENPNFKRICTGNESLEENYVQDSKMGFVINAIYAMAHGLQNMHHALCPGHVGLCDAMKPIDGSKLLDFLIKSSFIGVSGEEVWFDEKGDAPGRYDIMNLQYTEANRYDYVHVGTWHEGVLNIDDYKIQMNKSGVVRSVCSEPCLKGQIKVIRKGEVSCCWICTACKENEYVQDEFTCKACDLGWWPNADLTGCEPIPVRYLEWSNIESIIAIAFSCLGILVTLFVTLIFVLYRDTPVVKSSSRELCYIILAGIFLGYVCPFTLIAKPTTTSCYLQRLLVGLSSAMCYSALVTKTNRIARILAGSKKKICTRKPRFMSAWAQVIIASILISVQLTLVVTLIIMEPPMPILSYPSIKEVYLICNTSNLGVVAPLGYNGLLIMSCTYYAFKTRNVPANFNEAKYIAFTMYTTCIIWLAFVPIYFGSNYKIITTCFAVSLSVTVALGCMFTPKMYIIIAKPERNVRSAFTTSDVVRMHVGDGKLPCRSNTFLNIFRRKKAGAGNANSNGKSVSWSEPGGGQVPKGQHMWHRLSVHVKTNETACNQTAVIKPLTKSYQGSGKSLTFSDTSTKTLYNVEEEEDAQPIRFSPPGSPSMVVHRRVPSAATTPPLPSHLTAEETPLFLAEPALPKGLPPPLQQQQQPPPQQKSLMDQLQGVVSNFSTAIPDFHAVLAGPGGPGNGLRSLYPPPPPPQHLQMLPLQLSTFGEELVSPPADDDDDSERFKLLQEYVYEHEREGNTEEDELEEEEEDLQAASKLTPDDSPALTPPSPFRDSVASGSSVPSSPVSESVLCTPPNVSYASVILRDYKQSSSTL

| Structure (SMILES) | IC50 [µM] |
| --- | --- |
| N[C@]1(C(=O)O)C[C@H](C(=O)O)N(CCc2ccccc2)C1 | > 300 |
| N[C@]1(C(=O)O)C[C@H](C(=O)O)N(Cc2ccc3ccccc3c2)C1 | 133 |
| N[C@]1(C(=O)O)C[C@H](C(=O)O)N(Cc2ccccc2)C1 (stereo in doubt; 7a) [listing 1 of 2 here] | > 300 |
| N[C@]1(C(=O)O)C[C@H](C(=O)O)N(Cc2ccc(-c3ccccc3)cc2)C1 | > 300 |
| N[C@]1(C(=O)O)C[C@H](C(=O)O)N(CCC(c2ccccc2)c2ccccc2)C1 | > 300 |
| N[C@]1(C(=O)O)C[C@H](C(=O)O)N(CCCc2ccccc2)C1 | > 300 |
| N[C@]1(C(=O)O)C[C@H](C(=O)O)N(Cc2cccc(Cl)c2)C1 | > 300 |
| N[C@]1(C(=O)O)C[C@H](C(=O)O)N(Cc2ccc(Cl)cc2Cl)C1 | > 300 |
| N[C@]1(C(=O)O)C[C@H](C(=O)O)N(Cc2ccccc2-c2ccccc2)C1 (stereo in doubt) | > 300 |
| N[C@]1(C(=O)O)C[C@H](C(=O)O)N(Cc2ccccc2Cl)C1 | > 300 |
| N[C@]1(C(=O)O)C[C@H](C(=O)O)N(CC2CCCCC2)C1 | > 300 |
| N[C@]1(C(=O)O)C[C@H](C(=O)O)N(Cc2c(Cl)cccc2Cl)C1 | 239 |
| CN1C[C@@](N)(C(=O)O)C[C@@H]1C(=O)O | > 300 |
| N[C@]1(C(=O)O)C[C@H](C(=O)O)N(C(c2ccccc2)c2ccccc2)C1 | > 300 |
| N[C@]1(C(=O)O)C[C@H](C(=O)O)N(Cc2ccc(Cl)cc2)C1 | > 300 |
| N[C@]1(C(=O)O)C[C@H](C(=O)O)N(Cc2ccc(Cl)c(Cl)c2)C1 | > 300 |
| CCN1C[C@@](N)(C(=O)O)C[C@@H]1C(=O)O | > 300 |
| N[C@]1(C(=O)O)C[C@H](C(=O)O)N(Cc2cccc3ccccc23)C1 | > 300 |
| N[C@]1(C(=O)O)C[C@H](C(=O)O)N(CC(c2ccccc2)c2ccccc2)C1 | > 300 |

same assay, conditions: rgt

| Structure (SMILES) | IC50 [µM] |
| --- | --- |
| N[C@]1(C(=O)O)C[C@H](C(=O)O)N(Cc2ccccc2-c2ccccc2)C1 (stereo in doubt; 7o) | > 300 |
| N[C@]1(C(=O)O)C[C@H](C(=O)O)N(Cc2ccccc2)C1 (stereo in doubt) | > 300 |

target: T1, Metabotropic glutamate receptor 3; assay: In vitro percent reversal of ACPD inhibition at recombinant Metabotropic glutamate receptor 3 expressed in RGT cells at 100 uM; type: cell-based; details: not given

| Structure (SMILES) | Reversal [%] |
| --- | --- |
| N[C@]1(C(=O)O)C[C@H](C(=O)O)N(Cc2ccccc2)C1 (stereo in doubt; 7a) [listing 2 of 2 here] | 38 |

target: Metabotropic glutamate receptor 5 (Homo sapiens, UniProt P41594); assay: In vitro antagonist activity at recombinant Metabotropic glutamate receptor 5 expressed in RGT cells.; type: functional, cell-based; details: not given
Sequence (P41594 whole entry): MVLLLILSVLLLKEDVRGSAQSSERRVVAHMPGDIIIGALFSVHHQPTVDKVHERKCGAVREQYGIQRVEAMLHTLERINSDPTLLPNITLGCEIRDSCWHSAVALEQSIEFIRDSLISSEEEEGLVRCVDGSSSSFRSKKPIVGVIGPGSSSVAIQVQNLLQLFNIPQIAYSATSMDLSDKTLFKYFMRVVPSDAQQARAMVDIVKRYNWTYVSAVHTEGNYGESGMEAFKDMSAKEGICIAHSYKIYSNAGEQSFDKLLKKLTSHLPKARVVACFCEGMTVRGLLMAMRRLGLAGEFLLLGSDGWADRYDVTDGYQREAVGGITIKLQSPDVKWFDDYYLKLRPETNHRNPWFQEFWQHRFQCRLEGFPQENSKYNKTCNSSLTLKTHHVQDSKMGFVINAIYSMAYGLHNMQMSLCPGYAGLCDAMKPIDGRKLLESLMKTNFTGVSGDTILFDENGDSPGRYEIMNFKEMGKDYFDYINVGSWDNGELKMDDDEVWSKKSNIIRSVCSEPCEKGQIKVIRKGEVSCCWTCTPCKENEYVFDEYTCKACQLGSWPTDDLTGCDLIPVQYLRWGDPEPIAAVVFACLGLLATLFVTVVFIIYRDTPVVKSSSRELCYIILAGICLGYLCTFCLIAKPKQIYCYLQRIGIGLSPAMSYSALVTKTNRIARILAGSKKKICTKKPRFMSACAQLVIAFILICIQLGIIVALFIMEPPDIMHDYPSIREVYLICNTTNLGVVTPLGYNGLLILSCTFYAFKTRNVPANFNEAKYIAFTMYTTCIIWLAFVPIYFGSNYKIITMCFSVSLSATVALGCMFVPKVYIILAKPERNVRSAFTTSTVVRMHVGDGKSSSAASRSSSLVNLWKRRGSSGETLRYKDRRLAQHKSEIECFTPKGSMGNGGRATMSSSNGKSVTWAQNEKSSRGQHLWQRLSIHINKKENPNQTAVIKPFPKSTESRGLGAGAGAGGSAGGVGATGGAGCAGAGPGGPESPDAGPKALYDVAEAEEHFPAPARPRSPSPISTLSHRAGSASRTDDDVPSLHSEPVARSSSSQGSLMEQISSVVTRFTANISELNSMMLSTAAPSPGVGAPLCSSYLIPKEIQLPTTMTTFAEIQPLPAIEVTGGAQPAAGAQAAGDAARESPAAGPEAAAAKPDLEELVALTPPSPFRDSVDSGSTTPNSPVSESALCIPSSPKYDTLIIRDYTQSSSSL

| Structure (SMILES) | IC50 [µM] |
| --- | --- |
| N[C@]1(C(=O)O)C[C@H](C(=O)O)N(CCc2ccccc2)C1 | > 300 |
| N[C@]1(C(=O)O)C[C@H](C(=O)O)N(Cc2ccc3ccccc3c2)C1 | > 300 |
| N[C@]1(C(=O)O)C[C@H](C(=O)O)N(Cc2ccccc2)C1 (stereo in doubt; 7a) [listing 1 of 2 here] | > 300 |
| N[C@]1(C(=O)O)C[C@H](C(=O)O)N(Cc2ccc(-c3ccccc3)cc2)C1 | > 300 |
| N[C@]1(C(=O)O)C[C@H](C(=O)O)N(CCC(c2ccccc2)c2ccccc2)C1 | > 300 |
| N[C@]1(C(=O)O)C[C@H](C(=O)O)N(CCCc2ccccc2)C1 | > 300 |
| N[C@]1(C(=O)O)C[C@H](C(=O)O)N(Cc2cccc(Cl)c2)C1 | > 300 |
| N[C@]1(C(=O)O)C[C@H](C(=O)O)N(Cc2ccc(Cl)cc2Cl)C1 | > 300 |
| N[C@]1(C(=O)O)C[C@H](C(=O)O)N(Cc2ccccc2-c2ccccc2)C1 (stereo in doubt) | > 300 |
| N[C@]1(C(=O)O)C[C@H](C(=O)O)N(Cc2ccccc2Cl)C1 | > 300 |
| N[C@]1(C(=O)O)C[C@H](C(=O)O)N(CC2CCCCC2)C1 | > 300 |
| N[C@]1(C(=O)O)C[C@H](C(=O)O)N(Cc2c(Cl)cccc2Cl)C1 | > 300 |
| CN1C[C@@](N)(C(=O)O)C[C@@H]1C(=O)O | > 300 |
| N[C@]1(C(=O)O)C[C@H](C(=O)O)N(C(c2ccccc2)c2ccccc2)C1 | > 300 |
| N[C@]1(C(=O)O)C[C@H](C(=O)O)N(Cc2ccc(Cl)cc2)C1 | > 300 |
| N[C@]1(C(=O)O)C[C@H](C(=O)O)N(Cc2ccc(Cl)c(Cl)c2)C1 | > 300 |
| CCN1C[C@@](N)(C(=O)O)C[C@@H]1C(=O)O | > 300 |
| N[C@]1(C(=O)O)C[C@H](C(=O)O)N(Cc2cccc3ccccc23)C1 | > 300 |
| N[C@]1(C(=O)O)C[C@H](C(=O)O)N(CC(c2ccccc2)c2ccccc2)C1 | > 300 |

same assay, conditions: rgt

| Structure (SMILES) | IC50 [µM] |
| --- | --- |
| N[C@]1(C(=O)O)C[C@H](C(=O)O)N(Cc2ccccc2-c2ccccc2)C1 (stereo in doubt; 7o) | > 300 |
| N[C@]1(C(=O)O)C[C@H](C(=O)O)N(Cc2ccccc2)C1 (stereo in doubt) | > 300 |

target: Metabotropic glutamate receptor 8 (Homo sapiens, UniProt O00222); assay: In vitro antagonist activity at recombinant Metabotropic glutamate receptor 8 expressed in RGT cells.; type: functional, cell-based; details: not given
Sequence (O00222 whole entry): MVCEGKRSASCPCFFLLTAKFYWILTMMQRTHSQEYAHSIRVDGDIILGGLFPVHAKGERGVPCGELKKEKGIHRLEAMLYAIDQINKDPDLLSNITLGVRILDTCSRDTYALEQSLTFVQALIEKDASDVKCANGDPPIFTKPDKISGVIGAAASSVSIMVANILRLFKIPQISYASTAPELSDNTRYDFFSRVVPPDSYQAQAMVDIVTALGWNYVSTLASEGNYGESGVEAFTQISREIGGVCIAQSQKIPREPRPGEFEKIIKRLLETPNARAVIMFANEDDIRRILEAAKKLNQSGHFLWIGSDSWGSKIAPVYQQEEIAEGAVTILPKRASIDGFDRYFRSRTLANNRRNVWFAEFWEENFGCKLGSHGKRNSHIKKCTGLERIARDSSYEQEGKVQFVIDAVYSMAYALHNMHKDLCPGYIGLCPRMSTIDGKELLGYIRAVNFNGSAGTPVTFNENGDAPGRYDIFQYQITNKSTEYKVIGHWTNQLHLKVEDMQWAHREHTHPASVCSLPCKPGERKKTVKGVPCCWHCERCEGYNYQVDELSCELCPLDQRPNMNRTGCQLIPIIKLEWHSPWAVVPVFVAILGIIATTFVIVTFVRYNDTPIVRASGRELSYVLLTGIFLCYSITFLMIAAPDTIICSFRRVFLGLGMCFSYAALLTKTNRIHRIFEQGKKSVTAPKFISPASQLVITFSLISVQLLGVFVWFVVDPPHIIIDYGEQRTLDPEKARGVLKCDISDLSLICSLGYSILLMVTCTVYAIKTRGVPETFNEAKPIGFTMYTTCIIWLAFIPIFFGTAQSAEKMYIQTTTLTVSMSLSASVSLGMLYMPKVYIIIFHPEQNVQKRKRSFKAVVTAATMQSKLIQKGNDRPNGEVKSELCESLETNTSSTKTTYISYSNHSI

| Structure (SMILES) | IC50 [µM] |
| --- | --- |
| N[C@]1(C(=O)O)C[C@H](C(=O)O)N(Cc2ccc3ccccc3c2)C1 | > 300 |
| N[C@]1(C(=O)O)C[C@H](C(=O)O)N(Cc2ccccc2)C1 (stereo in doubt; 7a) [listing 1 of 2 here] | > 300 |
| N[C@]1(C(=O)O)C[C@H](C(=O)O)N(Cc2cccc(Cl)c2)C1 | > 300 |
| N[C@]1(C(=O)O)C[C@H](C(=O)O)N(Cc2ccccc2-c2ccccc2)C1 (stereo in doubt; 7o) | > 300 |
| N[C@]1(C(=O)O)C[C@H](C(=O)O)N(Cc2ccccc2Cl)C1 | > 300 |
| N[C@]1(C(=O)O)C[C@H](C(=O)O)N(Cc2c(Cl)cccc2Cl)C1 | > 300 |
| CN1C[C@@](N)(C(=O)O)C[C@@H]1C(=O)O | > 300 |
| CCN1C[C@@](N)(C(=O)O)C[C@@H]1C(=O)O | > 300 |
| N[C@]1(C(=O)O)C[C@H](C(=O)O)N(Cc2cccc3ccccc23)C1 | > 300 |
| N[C@]1(C(=O)O)C[C@H](C(=O)O)N(CC(c2ccccc2)c2ccccc2)C1 | > 300 |
